Data as given in US12201679B2, “Epitope-targeted peptide immunostimulants” (priority 2019, dated 2025).
Several values for one entry are separate records, joined by “and”; a condition that tells them apart may be missing. Identical values can stand only once. Entries after “also recorded” stand apart in the source; their conditions may differ. Like-named read-outs stand apart in the source and are kept apart here. Bridge positions count the residues as written; N and C are the ends. Square brackets hold non-standard residues; d marks the D form. Triazole bridges read from a SMILES are 1,4-linked. Ends that are not written are not given here. Peptide text beside a SMILES is read from it. * marks the point of attachment. Biotin = O=C1N[C@H]2[C@H](CS[C@H]2CCCCC(=O)*)N1; PEG10 = NCCOCCOCCOCCOCCOCCOCCOCCOCCOCCOCCC(=O)O; Lys(N3) = [N-]=[N+]=NCCCC[C@H](N)C(=O)O; Pra = C#CC[C@H](N)C(=O)O

Legend:
[1] = biological target: full-length recombinant MrkA protein (Klebsiella pneumoniae, UniProt P12267); assay type: binding; conditions: [MrkA] 25 nM
Chain of full-length recombinant MrkA protein (P12267 23-202): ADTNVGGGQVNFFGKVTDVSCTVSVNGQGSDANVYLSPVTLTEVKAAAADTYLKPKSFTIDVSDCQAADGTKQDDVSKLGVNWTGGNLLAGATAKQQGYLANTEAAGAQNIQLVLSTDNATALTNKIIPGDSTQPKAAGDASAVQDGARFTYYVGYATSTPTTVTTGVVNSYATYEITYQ
Text: HPraGly is present before X1 in each peptide and Az4 follows X5 in each peptide.

[2] = Isocratic point, elution from C18 prep-scale column; assay type: physicochemical; conditions: elution from C18 column
Protocol: PCC compounds were purified on a Waters Autopurification system, which isolated compounds based on MS peaks corresponding to protonated [M+1H]^+ and [M+2H]^2+, and/or sodium adducts [M+Na]^+ and [M+2Na]^2+. The isocratic points of PCCs were determined based on the elution of the compound from a C18 prep-scale column. Synthetic epitopes were either purified on the Waters Autopurification System, or by semi-preparative HPLC and then using matrix-assisted laser desorption/ionization mass spectroscopy to identify fractions with the desired m/z ratio. The resulting peptides were lyophilized, the yield determined by mass difference or UV-visible absorbance, and resuspended at a concentration of up to 10 mM peptide in DMSO. Peptides were stored at −80° C. before thawing for each use.

[3] = system: K. pneumoniae cells (strain BAA 2146); experiment: Flow cytometry, recruitment of fluorescent anti-DNP antibodies; assay type: cell-based, Klebsiella pneumoniae; conditions: cy(LLFFF)-DNP 1 or 5 μM; cy(HNGPT) 50 μM; plus fluorescent anti-DNP
Protocol: To test this, cells were incubated with DNP-conjugated EPIs and then fluorescently labeled anti-DNP antibody (Alexafluor488), and subsequently quantified the fluorescence of cells by using flow cytometry.
Cytometry measurements were gated for single cells, and each distribution comprises >18,000 cells.
Cytometry measurements were used to quantify AR-PCC-driven opsonization and opsonophagocytic killing of K. pneumoniae cells. For these measurements, K. pneumoniae cells were cultured in G-CAA medium overnight, washed, incubated with DNP-tagged AR-PCC at a desired concentration, washed, incubated with anti-DNP antibody conjugated with Alexafluor488, washed, then resuspended in PBS media. The samples were stored at 4° C. for 2 d before cytometry measurements were performed. The cytometer was calibrated by using Rainbow fluorescent beads (3.5 μm diameter) 3.5 m from BD (559123), which aided identification of single K. pneumoniae cells in subsequent measurements. Samples were excited with 488 nm light and the fluorescence emission at 530 nm was measured. Sample with no Alexaflour488 stain was used as fluorescent minus one (FMO) control for gating of DNP+ population. FACS data was analyzed on FlowJo v10 software, and the resulting histograms each include fluorescence data from >18,000 cells for strain BAA 2146 (FIG. 4B) and >4,000 cells for strain BAA 1705 (data not shown).

[4] = system: K. pneumoniae (strains BAA 1705 & 2146); experiment: Whole-cell ELISA, biotinylated PCC, multidrug-resistant K. pneumoniae; assay type: cell-based, Klebsiella pneumoniae; conditions: biotinylated PCC at 5 μM, FIG. 5C
Protocol: Detection of the binding of biotinylated PCCs to bacterial surface was performed as follows. 10^8 bacteria from a culture grown overnight were used for each test. […] After washing thrice with PBS to remove unbound PCCs, bacteria were incubated with Streptavidin-HRP (1:1000) for 1 h at 37° C. Bacteria were washed thoroughly and the TMB reagent was added until visible coloration was observed. The reaction was quenched using 2N H2SO4 and absorbance was measured at 450 nm.

[5] = system: K. pneumoniae cells (strain BAA 1705); experiment: Gentamicin protection assay: phagocytosis and opsonophagocytic killing (OPK) by macrophages; assay type: cell-based, Klebsiella pneumoniae; conditions: for phagocytosis at 1 h, AR-PCC only (no anti-DNP): control samples; for colony counts at 1 h, EPI plus anti-DNP antibody: 5 μM AR-PCC, murine BMDMs
Protocol: It also tested whether DNP-conjugated EPIs could promote the opsonophagocytic killing (OPK) of K. pneumoniae by macrophages. This was tested by using an OPK assay. Briefly, K. pneumoniae cells were treated with EPI and then anti-DNP antibody before being exposed to macrophages for either 6 or 24 hours. During this incubation period, macrophages that recognize K. pneumoniae cells will phagocytose them, and phagocytosed bacteria will remain viable for up to 6 hours, but within 24 hours are rendered inviable by OPK. Thus, macrophages were isolated after 6 and 24 hours of incubation with K. pneumoniae, lysed them, and plated and grew the lysate, which yielded bacterial colonies that reflect the phagocytosis (at 6 hrs) or OPK (at 24 hrs) of bacteria.
Given that cy(LLFFF)-DNP (SEQ ID NO:5) recruits antibodies to K. pneumoniae surfaces, it was expected that K. pneumoniae opsonized in this manner would be more susceptible to phagocytosis by macrophages. AR-PCC-driven phagocytosis and OPK were quantified by a gentamicin protection assay, as depicted in FIG. 7A. For this assay, K. pneumoniae cells (strain BAA 1705) were treated with cy(LLFFF)-DNP (SEQ ID NO:5), opsonized by anti-DNP antibodies, and then incubated with murine bone-marrow-derived macrophages (BMDMs). BMDMs were subsequently exposed to a solution containing gentamicin, to which K. pneumoniae strain BAA 1705 is susceptible, to kill any extracellular bacteria. Phagocytosed bacteria remain viable inside BMDMs for at least 1 h, yet are rendered inviable after 24 h by OPK (FIG. 13). Macrophages harvested at 1 h and 24 h were lysed and plated to generate bacterial colonies, which were enumerated to quantify phagocytosis and OPK.
Klebsiella pneumoniae BAA1705 was treated with DNP-PCCs followed by incubation with anti-DNP antibody, as described above in the “Cell-Based ELISAs” section. These opsonized bacteria were then used to infect BMDMs at a multiplicity of infection of 50 for 0.5 h at 37° C. Bacteria were then washed by using RPMI 1640 Media and BMDMs were left in cell culture medium containing gentamicin (100 μg/ml). After 1 h and 24 h BMDMs were washed to remove gentamicin and intracellular bacteria were harvested by lysing BMDMs in RPMI media containing 0.2% Triton X 100. Bacterial CFUs were enumerated by plating onto LB agar. Bacterial counts at 1 h indicated the degree of opsonization while those at 24 h served as a measure of microbicidal activity of macrophages. For these measurements, anti-MrkA antibody and K. pneumoniae antiserum were used at dilutions of 5 μg/mL each.

Compound	Isocratic point (%) [2] [%]	Relative affinity (ratio of ELISA signal versus cy(LLFFF)) ([1]; ELISA 6)	phagocytosis at 1 h, AR-PCC only (no anti-DNP) ([5]; 1 h)	further results
CC(C)C[C@@H]1NC(=O)[C@@H](NC(=O)CCOCCOCCOCCOCCOCCOCCOCCOCCOCCOCCNC(=O)[C@H](CCCNC(=N)N)NC(=O)[C@H](CCCNC(=N)N)NC(=O)[C@H](CCCNC(=N)N)NC(=O)[C@H](CCCNC(=N)N)NC(=O)[C@H](CCCNC(=N)N)NC(=O)[C@H](CCCNC(=N)N)NC(=O)[C@H](CCCNC(=N)N)NC(=O)[C@H](CCCNC(=N)N)NC(=O)[C@H](CCCNC(=N)N)NC(=O)CCOCCOCCOCCOCCOCCOCCOCCOCCOCCOCCNC(=O)CCCC[C@@H]2SC[C@@H]3NC(=O)N[C@@H]32)Cc2cn(nn2)CCCC[C@@H](C(N)=O)NC(=O)[C@H](Cc2ccccc2)NC(=O)[C@H](Cc2ccccc2)NC(=O)[C@H](Cc2ccccc2)NC(=O)[C@H](CC(C)C)NC1=O [compound 18]	37.03	–	–	Relative affinity (ratio of ELISA signal versus cy(LLFFF)) ([1]; ELISA 5): 0.58
CC(C)C[C@@H]1NC(=O)[C@H](Cc2c[nH]cn2)NC(=O)[C@@H](NC(=O)CCOCCOCCOCCOCCOCCOCCOCCOCCOCCOCCNC(=O)CCCC[C@@H]2SC[C@@H]3NC(=O)N[C@@H]32)Cc2cn(nn2)CCCC[C@@H](C(N)=O)NC(=O)[C@H](Cc2ccccc2)NC(=O)[C@H](Cc2ccccc2)NC(=O)[C@H](Cc2ccccc2)NC1=O [compound 19] ({Biotin-PEG10}-[Pra]HLFFF[Lys(N3)]-NH2; triazole 1-7)	47.52	0.81	–	–
CC(C)C[C@@H]1NC(=O)[C@H](CC(=O)O)NC(=O)[C@@H](NC(=O)CCOCCOCCOCCOCCOCCOCCOCCOCCOCCOCCNC(=O)CCCC[C@@H]2SC[C@@H]3NC(=O)N[C@@H]32)Cc2cn(nn2)CCCC[C@@H](C(N)=O)NC(=O)[C@H](Cc2ccccc2)NC(=O)[C@H](Cc2ccccc2)NC(=O)[C@H](Cc2ccccc2)NC1=O [compound 20] ({Biotin-PEG10}-[Pra]DLFFF[Lys(N3)]-NH2; triazole 1-7)	66.33	0.21	–	–
CC(C)C[C@@H]1NC(=O)[C@@H](NC(=O)CCOCCOCCOCCOCCOCCOCCOCCOCCOCCOCCNC(=O)CCCC[C@@H]2SC[C@@H]3NC(=O)N[C@@H]32)Cc2cn(nn2)CCCC[C@@H](C(N)=O)NC(=O)[C@H](Cc2ccccc2)NC(=O)[C@H](Cc2ccccc2)NC(=O)[C@H](CC(C)C)NC1=O [compound 21] ({Biotin-PEG10}-[Pra]LLFF[Lys(N3)]-NH2; triazole 1-6)	64.99	0.14	–	–
CC(C)C[C@@H]1NC(=O)[C@@H](NC(=O)CCOCCOCCOCCOCCOCCOCCOCCOCCOCCOCCNC(=O)CCCC[C@@H]2SC[C@@H]3NC(=O)N[C@@H]32)Cc2cn(nn2)CCCC[C@@H](C(N)=O)NC(=O)[C@H](Cc2ccccc2)NC(=O)[C@H](CC(C)C)NC1=O [compound 22] ({Biotin-PEG10}-[Pra]LLF[Lys(N3)]-NH2; triazole 1-5)	56.45	0.09	–	–
NC(=O)[C@@H]1CCCCn2cc(nn2)C[C@H](NC(=O)CCOCCOCCOCCOCCOCCOCCOCCOCCOCCOCCNC(=O)CCCC[C@@H]2SC[C@@H]3NC(=O)N[C@@H]32)C(=O)N[C@@H](Cc2ccccc2)C(=O)N[C@@H](Cc2ccccc2)C(=O)N[C@@H](Cc2ccccc2)C(=O)N1 [compound 23] ({Biotin-PEG10}-[Pra]FFF[Lys(N3)]-NH2; triazole 1-5)	60.27	0.14	–	–
cy(HNGPT) (not fully specified (bridges); printed as cy(HNGPT); also: cyclic, closure not given here) [reference compound]	–	–	–	fluorescence of cells [3]: Slightly greater fluorescence; whole-cell ELISA signal, K. pneumoniae BAA 1705 and BAA 2146 [4]: comparably lower signal; also recorded: no or minimal binding above baseline; CFU, DNP-conjugated EPI plus anti-DNP, macrophages harvested at 6 hrs ([5]; 6 hrs): almost identical CFU count; cell counts, DNP-conjugated EPI only (no antibody), macrophages harvested at 6 hrs ([5]; 6 hrs): ~35,000
cy(LLFFA)-DNP (not fully specified (bridges); printed as cy(LLFFA)-DNP; also: DNP label)	–	–	None of these treatments elicited phagocytosis above basal levels	phagocytosis at 1 h, DNP-tagged AR-PCC plus anti-DNP (words) ([5]; 1 h, FIG. 7B): None of these treatments elicited phagocytosis above basal levels
cy(LLFFF)+R6-DNP (LLFFFRRRRRR; not fully specified (C-terminus); printed as cy(LLFFF)+R6-DNP; also: cyclic over residues 1-5, ring closure not given here)	–	–	None of these treatments elicited phagocytosis above basal levels	colony counts at 1 h, EPI plus anti-DNP antibody ([5]; 1 h): 85,000 CFU
cy(LLFFF)-DNP (cyclo(LLFFF); also: DNP label)	–	–	None of these treatments elicited phagocytosis above basal levels	fluorescence of cells [3]: much higher fluorescence; colony counts at 1 h, EPI plus anti-DNP antibody ([5]; 1 h): 89,000 CFU and 85,000 CFU; level of phagocytosis lower than K. pneumoniae antiserum and anti-MrkA treatment ([5]; plus anti-DNP, 1 h): about 15%
